“Also recorded” adds a separate entry of the source.
Columns and labels:
[1] = tested on: PKB Ser473 phosphorylation; conditions: literature: Hill et al. 2001; Alessi et al. 1996; cited from earlier work
[2] = tested on: PKB Ser473 kinase; conditions: second kinase activity, taken to be the PKB Ser473 kinase; 0-100 microM tested
[3] = molecular target: T1, PDK1 (Homo sapiens, UniProt O15530); conditions: literature: Hill et al. 2001; cited from earlier work
T1 sequence (O15530 1-556): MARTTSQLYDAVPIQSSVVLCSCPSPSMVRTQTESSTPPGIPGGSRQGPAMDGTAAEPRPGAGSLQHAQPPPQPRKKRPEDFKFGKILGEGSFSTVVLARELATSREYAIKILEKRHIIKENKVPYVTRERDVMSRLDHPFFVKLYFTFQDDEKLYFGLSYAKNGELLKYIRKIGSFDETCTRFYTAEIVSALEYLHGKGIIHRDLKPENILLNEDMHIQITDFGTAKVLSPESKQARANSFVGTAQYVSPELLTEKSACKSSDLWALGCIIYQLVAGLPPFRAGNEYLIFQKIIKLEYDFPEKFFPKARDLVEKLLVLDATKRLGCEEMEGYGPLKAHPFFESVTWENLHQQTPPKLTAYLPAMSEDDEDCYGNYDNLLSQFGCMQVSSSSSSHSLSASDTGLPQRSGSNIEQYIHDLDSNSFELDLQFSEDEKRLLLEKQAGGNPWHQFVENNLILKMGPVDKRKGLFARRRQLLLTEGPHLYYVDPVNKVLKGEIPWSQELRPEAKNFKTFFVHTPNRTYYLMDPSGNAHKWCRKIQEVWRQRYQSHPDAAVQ

[4] = tested on: PKB Ser473 kinase; assay: Ser473 kinase activity (FSY/FAY peptide assay) in subcellular fractions of treated serum-starved HEK293 cells; assay type: cell-based, human; conditions: 0.1 microM insulin, pervanadate 0.1 mM, 10 mins, LY294002 50 microM, 30 mins, versus basal
Experimental: HEK 293 cells transiently transfected with the PKB constructs were serum starved, stimulated or not with 0.1 mM pervanadate for 10 min at 37° C., and subcellular fractions were generated. Briefly, HEK 293 cells were washed once in ice-cold phosphate-buffered saline, and scraped in ice-cold fractionation buffer containing 20 mM HEPES-NaOH, pH 7.4, 250 mM sucrose, phosphatase inhibitors (10 mM sodium fluoride, 1 mM sodium pyrophosphate, 0.1 mM sodium orthovanadate, 2 μM microcystin LR [Alexis]), and protease inhibitors (1 mM PMSF and 1 mM benzamidine). After homogenization either by 10 passes through a 26-gauge needle, or by using a Kinematica homogenizer (10 strokes on speed 2 followed by 30 strokes on speed 10), subcellular fractions were prepared as previously described (Hill and Hemmings, 2002, Methods Enzymol 345: 448-463). The plasma membrane pellets were resuspended in 50 mM Tris-HCl (pH7.4) containing protease and phosphatase inhibitors as described above. Protein concentration of the subcellular fractions was determined by the Bradford method (Bio-Rad), using bovine serum albumin as standard. […]
Next, it was examined if membrane-associated Ser473 kinase activity was dependent on PI3-kinase signalling. […] PM fractions were assayed for Ser473 kinase activity, and also analyzed by immunoblotting for phospho-PKB and total PKB.

[5] = tested on: PKB phosphorylation on Thr308 and Ser473; assay: Immunoblotting of plasma membrane fractions for phospho-PKB and total PKB after cell treatment; assay type: cell-based, human; conditions: serum-starved HEK293 cells, immunoblot; for PKB phosphorylation on Thr308 and Ser473: 0.1 microM insulin, pervanadate 0.1 mM, 10 mins
Experimental: The presence of PKB in each fraction was determined by immunoblotting with an anti-HA antibody (12CA5). In addition, the phosphorylation status of PKB in each of the fractions was assessed by immunoblotting with phospho-specific PKB antibodies after immunoprecipitation with the HA antibody. Briefly, following SDS-PAGE, proteins were transferred onto Immobilon-P membranes (Millipore). Non-specific signals were blocked by incubating the membrane in TBST buffer (50 mM Tris-HCl, pH 7.4, 150 mM NaCl, 0.1% Tween-20) containing 5% skim milk for 1 hour at room temperature. Incubation with antibodies was performed in TBST for phospho-specific antibodies, TBST containing 1% skim milk for polyclonal antibodies and TBST containing 5% skim milk for monoclonal antibodies, at 4° C. overnight. Antibodies specific for PKB phosphorylated on Thr308 are commercially available (Cell Signalling Technologies). Antibodies specific for PKB phosphorylated on Ser473 was produced and purified as previously described (Hill and Hemmings, 2002, Methods Enzymol 345: 448-463). Pan-PKB antibody has been previously described (Jones et al., 1991, Proc Natl Acad Sci USA 88: 4171-4175).
Next, it was examined if membrane-associated Ser473 kinase activity was dependent on PI3-kinase signalling. Serum-starved HEK293 cells were treated with 0.1 microM insulin, the insulin mimetic pervanadate (0.1 mM, 10 mins.), the PI 3-kinase inhibitor LY294002 (50 microM, 30 mins.), or left untreated. PM fractions were assayed for Ser473 kinase activity, and also analyzed by immunoblotting for phospho-PKB and total PKB.

[6] = tested on: PKBα; assay: Subcellular fractionation of HEK 293 cells transfected with PKB constructs, anti-HA immunoblotting; assay type: cell-based, human; conditions: 0.1 mM pervanadate, 10 min, 37° C., serum-starved transfected HEK 293 cells
From the text: In order to characterize and purify the PKB Ser473 kinase, we reasoned that the kinase might be constitutively active at the plasma membrane (PM). To this end, we developed a subcellular fractionation protocol to generate fractions enriched in the PM. To determine the efficacy of the procedure, the fractionation behavior of products of two PKB constructs was examined: hemagglutinin (HA) tagged PKBα (HA-PKBα) and HA-PKBα containing a myristoylation/palmitylation signal (m/p-HA-PKBα).
HEK 293 cells transiently transfected with the PKB constructs were serum starved, stimulated or not with 0.1 mM pervanadate for 10 min at 37° C., and subcellular fractions were generated. […] Protein concentration of the subcellular fractions was determined by the Bradford method (Bio-Rad), using bovine serum albumin as standard. […]
The presence of PKB in each fraction was determined by immunoblotting with an anti-HA antibody (12CA5). In addition, the phosphorylation status of PKB in each of the fractions was assessed by immunoblotting with phospho-specific PKB antibodies after immunoprecipitation with the HA antibody. […]

Compound	Sensitivity of insulin-stimulated PKB Ser473 phosphorylation to the inhibitor [1]	Staurosporine concentration up to which the kinase activity is insensitive [2] [µM]	Effect on PDK1 [3]	Ser473 kinase activity in plasma membrane fractions [4]	PKB phosphorylation on Thr308 and Ser473 [5]	Translocation of membrane-targeted m/p-HA-PKBα [6]	Translocation of wild type HA-PKBα to the plasma membrane fraction [6]	Potency as activator of PKB phosphorylation compared with insulin [5]
CN[C@@H]1C[C@H]2O[C@@](C)([C@@H]1OC)n1c3ccccc3c3c4c(c5c6ccccc6n2c5c31)C(=O)NC4 [staurosporine]	staurosporine-insensitive; also recorded: not sensitive	> 100	inhibits PDK1	–	–	–	–	–
insulin	–	–	–	neither stimuli increased Ser473 kinase activity above basal levels	induced PKB phosphorylation on both Thr308 and Ser473	–	–	–
pervanadate	–	–	–	neither stimuli increased Ser473 kinase activity above basal levels	induced PKB phosphorylation on both Thr308 and Ser473	no translocation was observed	A portion of PKBα translocated to the PM fraction	more potent activator of PKB phosphorylation than insulin

— patent US7794995B2, “Purified PKB Ser 473 kinase and uses thereof” (priority 2002, dated 2010)
